According to paper PMC4807435 (CPT: Pharmacometrics & Systems Pharmacology, 2016):

Tests used:
LPV intrinsic clearance [1] = assay: LPV-RTV interaction modeling; type: in vivo, human
[2] = 2nd trimester vs. pp; capsules; ref Mirochnick et al., JAIDS, 2008 (9); cited from earlier work
[3] = Population PK model of unbound and total LPV/RTV in HIV-infected pregnant women; type: in vivo, human; conditions: for Total body clearance CL/F, back-calculated, median (range): intrinsic clearance × unbound fraction
LPV intrinsic clearance [4] = conditions: same interaction function form; ref Wang et al., 32; cited from earlier work
[5] = final model, 500 bootstrap replicates
[6] = final model, 500 bootstrap replicates, weight-scaled model (per 70kg)

| Structure (SMILES) | Apparent intrinsic clearance CLu/F, post hoc estimate, median (range) ([3]; Visit 1 (20–24 weeks)) | Total body clearance CL/F, back-calculated, median (range) ([3]; Visit 1 (20–24 weeks)) | Total body clearance CL/F, back-calculated, median (range) ([3]; Visit 2 (30 weeks)) | Apparent intrinsic clearance CLu/F, post hoc estimate, median (range) ([3]; Visit 3 (32 weeks)) | Total body clearance CL/F, back-calculated, median (range) ([3]; Visit 3 (32 weeks)) | Apparent intrinsic clearance CLu/F, post hoc estimate, median (range) ([3]; Visit 4 (8 weeks postpartum)) | Total body clearance CL/F, back-calculated, median (range) ([3]; Visit 4 (8 weeks postpartum)) | Interindividual variability of CLu/F, bootstrap estimates (95% CI) ([3]; final model) | Interindividual variability of CLu/F, estimate ([3]; final model) | Interindividual variability of fu, bootstrap estimates (95% CI) ([3]; final model) | Interindividual variability of fu, estimate ([3]; final model) | Interoccasion variability of fu, bootstrap estimates (95% CI) ([3]; final model) | Interoccasion variability of fu, estimate ([3]; final model) | Interoccasion variability of ka, estimate ([3]; final model) | Lag time, estimate ([3]; final model) | ka, estimate ([3]; final model) | Lag time, bootstrap estimates (95% CI) [3, 5] | ka, bootstrap estimates (95% CI) [3, 5] | other results |
| --- | --- | --- | --- | --- | --- | --- | --- | --- | --- | --- | --- | --- | --- | --- | --- | --- | --- | --- | --- |
| Cc1cccc(C)c1OCC(=O)N[C@@H](Cc1ccccc1)[C@@H](O)C[C@H](Cc1ccccc1)NC(=O)[C@H](C(C)C)N1CCCNC1=O [LPV, lopinavir] | 232 (226, 237) L/hr | 5.92 (5.22, 7.22) L/hr | 6.69 (5.73, 8.21) L/hr | 269 (263, 276) L/hr | 6.94 (5.90, 8.46) L/hr | 167 (165, 168) L/hr | 4.28 (3.65, 5.25) L/hr | 2.10 (0.32, 11.4) %CV | 2.70 %CV | 3.81 (0.32, 10.3) %CV | 4.60 %CV | 9.98 (4.68, 13.3) %CV | 10.0 %CV | 138 %CV | 1.77 h | 1.07 h⁻¹ | 1.75 (1.25, 1.93) h | 0.906 (0.582, 1.78) h^−1 | LPV clearance estimate (CLu/F) (LPV intrinsic clearance [1]; Basic joint model: LPV and RTV individual final models without interactions): 167 L/h; Decrease in AUC [2]: 52%; Increase of median post hoc CLu/F compared to 8 weeks postpartum ([3]; 20–24 weeks of gestation (22 weeks elsewhere in the source)): 38%; Increase of median post hoc CLu/F compared to 8 weeks postpartum ([3]; 30 weeks of gestation): 56%; Increase of median post hoc CLu/F compared to 8 weeks postpartum ([3]; 32 weeks of gestation): 61%; CL/F, estimate ([3]; CL/F = fu × CLu/F): 4.31 L/h; V/F, estimate ([3]; V/F = fu × Vu/F): 88.5 L; Apparent intrinsic clearance CLu/F, post hoc estimate, median (range) ([3]; Visit 2 (30 weeks)): 261 (255, 264) L/hr; fraction unbound ([3]; female, human, plasma, oral, fu, estimate, final model, unbound fraction): 0.0258; Interoccasion variability of CLu/F, bootstrap estimates (95% CI) ([3]; final model): 23.4 (16.1, 29.7) %CV; Interoccasion variability of CLu/F, estimate ([3]; final model): 24.7 %CV; Vu/F, estimate ([3]; final model): 3430 L; CLu/F, bootstrap estimates (95% CI) [3, 5]: 167 (136, 202) L/h; Coefficient of gestational week impact on CLu/F, bootstrap estimates (95% CI) [3, 5]: 0.0148 (0.00835, 0.0223); Vu/F, bootstrap estimates (95% CI) [3, 5]: 3325 (2655, 4256) L; CLu/F, estimate ([3]; final model, population value at gestational week zero (postpartum reference)): 167 L/h; Coefficient of gestational week impact on CLu/F, estimate ([3]; individual final model, CLu/F = θ × e^(coef×WEEK)): 0.0148; Unbound fraction, pregnancy vs postpartum ([3]; population PK covariate analysis): not significantly different; Difference among unbound AUC fractions across the four study visits ([3]; post hoc repeated-measures ANOVA, P > 0.05): no significant findings |
| CC(C)c1nc(CN(C)C(=O)N[C@H](C(=O)N[C@@H](Cc2ccccc2)C[C@H](O)[C@H](Cc2ccccc2)NC(=O)OCc2cncs2)C(C)C)cs1 [RTV, ritonavir] | 273 (161, 421) L/hr | 38.2 (26.0, 42.1) L/hr | 52.3 (33.6, 74.1) L/hr | 357 (191, 508) L/hr | 58.5 (32.6, 93.6) L/hr | 178 (101, 257) L/hr | 26.9 (16.6, 37.5) L/hr | 10.6 (1.92, 19.0) %CV | 8.5 %CV | 23.3 (12.2, 34.4) %CV | 24.4 %CV | 20.8 (12.6, 28.6) %CV | 23.5 %CV | 141.8 %CV | 1.86 h | 1.01 h⁻¹ | 1.86 (1.67, 1.94) h | 1.01 (0.340, 2.00) h^−1 | Interaction value (LPV-RTV interaction coefficient) (LPV intrinsic clearance [4]): 0.00064; Interaction parameter (coef) (LPV intrinsic clearance [1]; Model 6, CRTV exponential model, unbound RTV concentration): 0.0028; Interaction coefficient in terms of total RTV concentration (LPV intrinsic clearance [1]; exponential interaction function): 0.00041; Interoccasion variability of F, bootstrap estimates (95% CI) ([3]; final model): 30.9 (17.1, 46.1) %CV; Interoccasion variability of F, estimate ([3]; final model): 36.2 %CV; Interoccasion variability of ka, bootstrap estimates (95% CI) ([3]; final model): 142 (81.5, 201) %CV; CLu/F, bootstrap estimates (95% CI) [3, 6]: 157 (120, 202) L/h; Vu/F, bootstrap estimates (95% CI) [3, 6]: 1630 (1040, 2100) L |
